Data from ChEMBL document CHEMBL1201862, “PubChem BioAssay data set” (2004).
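Results reflect a 48-hour exposure of cells in 96-well plates to compound at five concentrations. GI50: concentration for 50% inhibition of growth.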 Calls of active or inactive are those of the source. Rule as the data show it: active = GI50 up to about 1.1 µM and inactive = higher.

How the values were obtained:
Test in all cases: NCI tumour cell line growth inhibition, 48 h
MCF7 = system: MCF7
SF-539 = system: SF-539
OVCAR-3 = system: OVCAR-3
MDA-N = system: MDA-N
HCT-116 = system: HCT-116
KM12 = system: KM12
786-0 = system: 786-0
SW-620 = system: SW-620
SK-OV-3 = system: SK-OV-3
SK-MEL-28 = system: SK-MEL-28
RXF 393 = system: RXF 393
HCT-15 = system: HCT-15
BT-549 = system: BT-549
PC-3 = system: PC-3
SNB-19 = system: SNB-19
HT-29 = system: HT-29
NCI-H226 = system: NCI-H226
TK-10 = system: TK-10
MDA-MB-435 = system: MDA-MB-435
OVCAR-5 = system: OVCAR-5
SK-MEL-5 = system: SK-MEL-5
OVCAR-8 = system: OVCAR-8
HL-60 = system: HL-60
UO-31 = system: UO-31
EKVX = system: EKVX
T47D = system: T47D
OVCAR-4 = system: OVCAR-4
A498 = system: A498
HOP-92 = system: HOP-92
CAKI-1 = system: CAKI-1
HCC 2998 = system: HCC 2998
SR = system: SR
K562 = system: K562
LOX IMVI = system: LOX IMVI
SF-295 = system: SF-295
UACC-62 = system: UACC-62
A549 = system: A549
M14 = system: M14
NCI/ADR-RES = system: NCI/ADR-RES
NCI-H460 = system: NCI-H460
ACHN = system: ACHN
SNB-75 = system: SNB-75
DU-145 = system: DU-145
NCI-H23 = system: NCI-H23
MDA-MB-231 = system: MDA-MB-231
NCI-H522 = system: NCI-H522
SN12C = system: SN12C
U-251 = system: U-251
COLO 205 = system: COLO 205
Hs-578T = system: Hs-578T
HOP-62 = system: HOP-62
MOLT-4 = system: MOLT-4
SF-268 = system: SF-268
IGROV-1 = system: IGROV-1
RPMI-8226 = system: RPMI-8226
Malme-3M = system: Malme-3M
CCRF-CEM = system: CCRF-CEM
UACC-257 = system: UACC-257
SK-MEL-2 = system: SK-MEL-2

C=[N+](CNC(=O)CNC(=O)C(Cc1ccc([N+](=O)[O-])cc1)NC(=O)OC(C)(C)C)C(=O)CNC(=O)C(Cc1ccc([N+](=O)[O-])cc1)NC(=O)OC(C)(C)C (stereo not given)
GI50 (MCF7): 40.8 µM (inactive)
GI50 (SF-539): 25.1 µM (inactive)
GI50 (OVCAR-3): 50.1 µM (inactive)
GI50 (MDA-N): > 10 µM (inactive)
GI50 (HCT-116): 36.2 µM (inactive)
GI50 (KM12): 53.1 µM (inactive)
GI50 (786-0): 69.5 µM (inactive)
GI50 (SW-620): 41.6 µM (inactive)
GI50 (SK-OV-3): > 100 µM (inactive)
GI50 (SK-MEL-28): 30.1 µM (inactive)
GI50 (RXF 393): 39.4 µM (inactive)
GI50 (HCT-15): > 100 µM
GI50 (BT-549): 28.1 µM (inactive)
GI50 (PC-3): 29.8 µM (inactive)
GI50 (SNB-19): 37 µM (inactive)
GI50 (HT-29): 49.1 µM (inactive)
GI50 (NCI-H226): 60.7 µM (inactive)
GI50 (TK-10): > 100 µM (inactive)
GI50 (MDA-MB-435): 26.2 µM (inactive)
GI50 (OVCAR-5): > 100 µM (inactive)
GI50 (SK-MEL-5): 35.6 µM (inactive)
GI50 (OVCAR-8): 52.7 µM (inactive)
GI50 (HL-60): 13.3 µM (inactive)
GI50 (UO-31): > 100 µM (inactive)
GI50 (EKVX): > 100 µM (inactive)
GI50 (T47D): > 10 µM (inactive)
GI50 (OVCAR-4): > 100 µM (inactive)
GI50 (A498): 30.7 µM (inactive)
GI50 (HOP-92): 38.1 µM (inactive)
GI50 (CAKI-1): > 100 µM (inactive)
GI50 (HCC 2998): 38.9 µM (inactive)
GI50 (SR): 24 µM (inactive)
GI50 (K562): 19 µM (inactive)
GI50 (LOX IMVI): 15.7 µM (inactive)
GI50 (SF-295): 46.6 µM (inactive)
GI50 (UACC-62): 21.6 µM (inactive)
GI50 (A549): > 100 µM (inactive)
GI50 (M14): 28.1 µM (inactive)
GI50 (NCI/ADR-RES): > 100 µM (inactive)
GI50 (NCI-H460): > 100 µM (inactive)
GI50 (ACHN): > 100 µM (inactive)
GI50 (SNB-75): 32.9 µM (inactive)
GI50 (DU-145): > 100 µM (inactive)
GI50 (NCI-H23): 68.1 µM (inactive)
GI50 (MDA-MB-231): 25.7 µM (inactive)
GI50 (NCI-H522): 24.3 µM (inactive)
GI50 (SN12C): 47.9 µM (inactive)
GI50 (U-251): 39.4 µM (inactive)
GI50 (COLO 205): 58.2 µM (inactive)
GI50 (Hs-578T): 26.1 µM (inactive)
GI50 (HOP-62): > 100 µM (inactive)
GI50 (MOLT-4): 17 µM (inactive)
GI50 (SF-268): 27.8 µM (inactive)
GI50 (IGROV-1): 42.4 µM (inactive)
GI50 (RPMI-8226): 16.9 µM (inactive)
GI50 (Malme-3M): 44.6 µM (inactive)

CCCn1cnc2c(/N=N/O)ncnc21
GI50 (MCF7): > 100 µM (inactive)
GI50 (SF-539): > 100 µM (inactive)
GI50 (OVCAR-3): > 100 µM (inactive)
GI50 (MDA-N): > 100 µM (inactive)
GI50 (HCT-116): > 100 µM (inactive)
GI50 (KM12): > 100 µM (inactive)
GI50 (786-0): > 100 µM (inactive)
GI50 (SW-620): > 100 µM (inactive)
GI50 (SK-MEL-28): > 100 µM (inactive)
GI50 (RXF 393): > 100 µM (inactive)
GI50 (HCT-15): > 100 µM
GI50 (BT-549): > 100 µM (inactive)
GI50 (PC-3): > 100 µM (inactive)
GI50 (SNB-19): > 100 µM (inactive)
GI50 (HT-29): > 100 µM (inactive)
GI50 (NCI-H226): > 100 µM (inactive)
GI50 (TK-10): > 100 µM (inactive)
GI50 (MDA-MB-435): > 100 µM (inactive)
GI50 (OVCAR-5): > 100 µM (inactive)
GI50 (SK-MEL-5): > 100 µM (inactive)
GI50 (OVCAR-8): > 100 µM (inactive)
GI50 (HL-60): > 100 µM (inactive)
GI50 (UO-31): > 100 µM (inactive)
GI50 (EKVX): > 100 µM (inactive)
GI50 (T47D): > 100 µM (inactive)
GI50 (OVCAR-4): > 100 µM (inactive)
GI50 (A498): > 100 µM (inactive)
GI50 (HOP-92): > 100 µM (inactive)
GI50 (CAKI-1): > 100 µM (inactive)
GI50 (HCC 2998): > 100 µM (inactive)
GI50 (SR): > 100 µM (inactive)
GI50 (K562): > 100 µM (inactive)
GI50 (UACC-62): > 100 µM (inactive)
GI50 (M14): > 100 µM (inactive)
GI50 (NCI/ADR-RES): > 100 µM (inactive)
GI50 (NCI-H460): > 100 µM (inactive)
GI50 (ACHN): > 100 µM (inactive)
GI50 (SNB-75): > 100 µM (inactive)
GI50 (DU-145): > 100 µM (inactive)
GI50 (NCI-H23): > 100 µM (inactive)
GI50 (MDA-MB-231): > 100 µM (inactive)
GI50 (NCI-H522): > 100 µM (inactive)
GI50 (U-251): > 100 µM (inactive)
GI50 (COLO 205): > 100 µM (inactive)
GI50 (Hs-578T): > 100 µM (inactive)
GI50 (HOP-62): > 100 µM (inactive)
GI50 (MOLT-4): > 100 µM (inactive)
GI50 (SF-268): > 100 µM (inactive)
GI50 (IGROV-1): > 100 µM (inactive)
GI50 (RPMI-8226): > 100 µM (inactive)
GI50 (Malme-3M): > 100 µM (inactive)

C=C1C(=O)OC2/C=C(\C)CC/C=C(\C)CC(OC(=O)/C(=C/CO)CO)[C@@H]12 (stereo not given in full)
GI50 (MCF7): 4.46 µM (inactive)
GI50 (SF-539): 12.2 µM (inactive)
GI50 (OVCAR-3): 5.7 µM (inactive)
GI50 (MDA-N): 5.45 µM (inactive)
GI50 (HCT-116): 3.27 µM (inactive)
GI50 (KM12): 18.1 µM (inactive)
GI50 (786-0): 4.84 µM (inactive)
GI50 (SW-620): 1.69 µM (inactive)
GI50 (SK-OV-3): 56 µM (inactive)
GI50 (SK-MEL-28): 15 µM (inactive)
GI50 (RXF 393): 7.19 µM (inactive)
GI50 (HCT-15): 5.87 µM
GI50 (BT-549): 12.1 µM (inactive)
GI50 (PC-3): 16.9 µM (inactive)
GI50 (SNB-19): > 51.4 µM (inactive)
GI50 (HT-29): 7.41 µM (inactive)
GI50 (NCI-H226): 32.8 µM (inactive)
GI50 (TK-10): 5.51 µM (inactive)
GI50 (MDA-MB-435): 5.75 µM (inactive)
GI50 (OVCAR-5): 17.3 µM (inactive)
GI50 (SK-MEL-5): 13 µM (inactive)
GI50 (OVCAR-8): 1.98 µM (inactive)
GI50 (HL-60): 2.72 µM (inactive)
GI50 (UO-31): 11.6 µM (inactive)
GI50 (EKVX): 15.2 µM (inactive)
GI50 (CCRF-CEM): 2.09 µM (inactive)
GI50 (T47D): 3.97 µM (inactive)
GI50 (OVCAR-4): 13.1 µM (inactive)
GI50 (A498): 19 µM (inactive)
GI50 (HOP-92): 4.93 µM (inactive)
GI50 (CAKI-1): 4.12 µM (inactive)
GI50 (UACC-257): 7.85 µM (inactive)
GI50 (HCC 2998): 18.7 µM (inactive)
GI50 (SR): 9.73 µM (inactive)
GI50 (K562): 2.65 µM (inactive)
GI50 (LOX IMVI): 16 µM (inactive)
GI50 (SF-295): 70.8 µM (inactive)
GI50 (UACC-62): 17.7 µM (inactive)
GI50 (A549): 23.4 µM (inactive)
GI50 (M14): 3.9 µM (inactive)
GI50 (NCI/ADR-RES): 20 µM (inactive)
GI50 (NCI-H460): 22.1 µM (inactive)
GI50 (ACHN): 6.21 µM (inactive)
GI50 (SNB-75): 12.3 µM (inactive)
GI50 (DU-145): 20 µM (inactive)
GI50 (NCI-H23): 13.7 µM (inactive)
GI50 (MDA-MB-231): 13.7 µM (inactive)
GI50 (SK-MEL-2): 16.9 µM (inactive)
GI50 (NCI-H522): 1.75 µM (inactive)
GI50 (SN12C): 13.6 µM (inactive)
GI50 (U-251): 1.4 µM (inactive)
GI50 (COLO 205): 2.2 µM (inactive)
GI50 (Hs-578T): 27.2 µM (inactive)
GI50 (MOLT-4): 2.14 µM (inactive)
GI50 (SF-268): 20.7 µM (inactive)
GI50 (IGROV-1): 10.5 µM (inactive)
GI50 (RPMI-8226): 1.61 µM (inactive)
GI50 (Malme-3M): 2.38 µM (inactive)
